Measurements taken from patent US8420657B2 (Novartis AG, priority 2008, dated 2013).

Experiments:
GST-JAK2(808-1132) = biological target: T1, GST-JAK2(808-1132) (Homo sapiens, UniProt O60674); assay: JAK2 kinase assay (Caliper mobility shift, LabChip 3000); assay type: biochemical
T1 construct: GST-JAK2(808-1132); purchased Invitrogen (Carlsbad, USA) #4288
In short: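 Recombinant GST-JAK2(808-1132) kinase domain with FITC-labelled JAK3tide peptide substrate and ATP; 60 min at 30 °C, EDTA stop. Substrate/product ratio read by microfluidic mobility shift; compounds at 8 final concentrations, 10 to 0.003 μM.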

[1] = test system: JAK1/JAK2-dependent nuclear translocation of STAT1-GFP in HT1080 fibrosarcoma cells; assay: STAT1 nuclear translocation assay (Cellomics), IFN-γ stimulated HT1080 STAT1-GFP cells; assay type: cell-based; settings: Homo sapiens, HT-1080, STAT1 translocation pathway
In short: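 HT1080 cells stably expressing STAT1-GFP, pre-treated 30 min with compound (10 μM–0.003 μM, 0.1% DMSO), then stimulated 2 h with 100 ng/ml IFN-γ, fixed and Hoechst-stained. Nuclear-cytoplasmic GFP differential imaged over ≥1000 cells/well, normalised to unstimulated and DMSO-stimulated wells for IC50.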

T1 sequence (O60674 808-1132): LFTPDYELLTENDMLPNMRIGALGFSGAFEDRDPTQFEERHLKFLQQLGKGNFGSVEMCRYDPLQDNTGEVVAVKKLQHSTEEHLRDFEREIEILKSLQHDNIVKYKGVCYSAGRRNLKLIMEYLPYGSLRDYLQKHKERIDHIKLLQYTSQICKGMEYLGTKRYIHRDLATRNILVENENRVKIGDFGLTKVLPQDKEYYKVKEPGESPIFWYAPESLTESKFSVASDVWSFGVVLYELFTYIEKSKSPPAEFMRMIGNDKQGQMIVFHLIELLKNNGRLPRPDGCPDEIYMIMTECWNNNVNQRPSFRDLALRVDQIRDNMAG

| IC50 (GST-JAK2(808-1132)) | IC50 [1] | Compound |
| --- | --- | --- |
| 295 nM | 23500 nM | Cc1ccc(Nc2ncc3cc(C)n(-c4ccc(CN5CCOCC5)c(F)c4)c3n2)cc1C [Example 163, (3,4-Dimethyl-phenyl)-[7-(3-fluoro-4-morpholin-4-ylmethyl-phenyl)-6-methyl-7H-pyrrolo[2,3-d]pyrimidin-2-yl]-amine] |
| 230 nM | 10700 nM | COc1cc(Nc2ncc3cc(C)n(-c4ccc(CN5CCOCC5)c(F)c4)c3n2)ccc1F [Example 164, (4-Fluoro-3-methoxy-phenyl)-[7-(3-fluoro-4-morpholin-4-ylmethyl-phenyl)-6-methyl-7H-pyrrolo[2,3-d]pyrimidin-2-yl]-amine] |
| 3.4 nM | 145 nM | Cc1ccc(Nc2ncc3ccn(-c4ccc(CC(=O)N5CCOCC5)cc4)c3n2)cc1C [Example 166, 2-{4-[2-(3,4-Dimethyl-phenylamino)-pyrrolo[2,3-d]pyrimidin-7-yl]-phenyl}-1-morpholin-4-yl-ethanone] |
| 30.5 nM | 3900 nM | CCOc1ccc(Nc2ncc3cc(C)n(-c4ccc(CN5CCOCC5)c(F)c4)c3n2)cc1OCC [Example 168, (3,4-Diethoxy-phenyl)-[7-(3-fluoro-4-morpholin-4-ylmethyl-phenyl)-6-methyl-7H-pyrrolo[2,3-d]pyrimidin-2-yl]-amine] |
| 4.3 nM | 93 nM | Cc1ccc(Nc2ncc3ccn(-c4ccc(C(=O)N5CCOCC5)cc4)c3n2)cc1C [Example 169, {4-[2-(3,4-Dimethyl-phenylamino)-pyrrolo[2,3-d]pyrimidin-7-yl]-phenyl}-morpholin-4-yl-methanone] |
| 17 nM | 374 nM | Cc1ccc(Nc2ncc3ccn(-c4ccc(C(=O)N5CCN(C)CC5)cc4)c3n2)cc1C [Example 170, {4-[2-(3,4-Dimethyl-phenylamino)-pyrrolo[2,3-d]pyrimidin-7-y]-phenyl}-(4-methyl-piperazin-1-yl)-methanone] |
| < 3 nM | 260 nM | CCN1CCN(C(=O)c2ccc(Nc3ncc4ccn(-c5cc(F)c(CN6CCOCC6)c(F)c5)c4n3)cc2)CC1 [Example 171, {4-[7-(3,5-Difluoro-4-morpholin-4-ylmethyl-phenyl)-7H-pyrrolo[2,3-d]pyrimidin-2-ylamino]-phenyl}-(4-ethyl-piperazin-1-yl)-methanone] |
| 5.5 nM | 235 nM | CN1CCN(Cc2ccc(Nc3ncc4ccn(-c5cc(F)c(CN6CCOCC6)c(F)c5)c4n3)cc2)CC1 [Example 173, [7-(3,5-Difluoro-4-morpholin-4-ylmethyl-phenyl)-7H-pyrrolo[2,3-d]pyrimidin-2-yl]-[4-(4-methyl-piperazin-1-ylmethyl)-phenyl]-amine] |
| < 3 nM | 150 nM | CN1CCN(c2cccc(Nc3ncc4ccn(-c5cc(F)c(CN6CCOCC6)c(F)c5)c4n3)c2)CC1 [Example 174, [7-(3,5-Difluoro-4-morpholin-4-ylmethyl-phenyl)-7H-pyrrolo[2,3-d]pyrimidin-2-yl]-[3-(4-methyl-piperazin-1-yl)-phenyl]-amine] |
| < 3 nM | 275 nM | O=C(c1ccc(Nc2ncc3ccn(-c4ccc(CN5CCOCC5)c(Cl)c4)c3n2)cc1)N1CCOCC1 [Example 175, {4-[7-(3-Chloro-4-morpholin-4-ylmethyl-phenyl)-7H-pyrrolo[2,3-d]pyrimidin-2-ylamino]-phenyl}-morpholin-4-yl-methanone] |
| 7.3 nM | 1550 nM | COCc1ccc(Nc2ncc3ccn(-c4ccc(CN5CCOCC5)c(Cl)c4)c3n2)cc1 [Example 176, [7-(3-Chloro-4-morpholin-4-yl methyl-phenyl)-7H-pyrrolo[2,3-d]pyrimidin-2-yl]-(4-methoxymethyl-phenyl)-amine] |
| 5.3 nM | 1040 nM | CCOc1ccc(Nc2ncc3ccn(-c4ccc(CN5CCOCC5)c(Cl)c4)c3n2)cc1OCC [Example 177, [7-(3-Chloro-4-morpholin-4-ylmethyl-phenyl)-7H-pyrrolo[2,3-d]pyrimidin-2-yl]-(3,4-diethoxy-phenyl)-amine] |
| 9.1 nM | 790 nM | O=C(c1ccc(Nc2ncc3ccn(-c4cc(F)c(CN5CCCC5)c(F)c4)c3n2)cc1)N1CCOCC1 [Example 178, {4-[7-(3,5-Difluoro-4-pyrrolidin-1-ylmethyl-phenyl)-7H-pyrrolo[2,3-d]pyrimidin-2-ylamino]-phenyl}-morpholin-4-yl-methanone] |
| 10.4 nM | 1520 nM | COCc1ccc(Nc2ncc3ccn(-c4cc(F)c(CN5CCCC5)c(F)c4)c3n2)cc1 [Example 179, [7-(3,5-Difluoro-4-pyrrolidin-1-ylmethyl-phenyl)-7H-pyrrolo[2,3-d]pyrimidin-2-yl]-(4-methoxymethyl-phenyl)-amine] |
| < 3 nM | 120 nM | O=S1(=O)CCN(Cc2c(F)cc(-n3ccc4cnc(Nc5ccccc5)nc43)cc2F)CC1 [Example 180, {7-[4-(1,1-Dioxido-thiomorpholin-4-ylmethyl)-3,5-difluoro-phenyl]-7H-pyrrolo[2,3-d]pyrimidin-2-yl}-phenyl-amine] |
| 15.5 nM | 16600 nM | O=S1(=O)CCN(Cc2c(F)cc(-n3ccc4cnc(Nc5ccccn5)nc43)cc2F)CC1 [Example 181, {7-[4-(1,1-Dioxido-thiomorpholin-4-ylmethyl)-3,5-difluoro-phenyl]-7H-pyrrolo[2,3-d]pyrimidin-2-yl}-pyridin-2-yl-amine] |
| < 3 nM | 125 nM | O=S1(=O)CCN(Cc2c(F)cc(-n3ccc4cnc(Nc5cccnc5)nc43)cc2F)CC1 [Example 182, {7-[4-(1,1-Dioxido-thiomorpholin-4-ylmethyl)-3,5-difluoro-phenyl]-7H-pyrrolo[2,3-d]pyrimidin-2-yl}-pyridin-3-yl-amine] |
| 3.3 nM | 95 nM | O=S1(=O)CCN(Cc2c(F)cc(-n3ccc4cnc(Nc5ccncc5)nc43)cc2F)CC1 [Example 183, {7-[4-(1,1-Dioxido-thiomorpholin-4-ylmethyl)-3,5-difluoro-phenyl]-7H-pyrrolo[2,3-d]pyrimidin-2-yl}-pyridin-4-yl-amine] |
| < 3 nM | 290 nM | N#Cc1ccc(Nc2ncc3ccn(-c4cc(F)c(CN5CCS(=O)(=O)CC5)c(F)c4)c3n2)cc1 [Example 185, 4-{7-[4-(1,1-Dioxido-thiomorpholin-4-ylmethyl)-3,5-difluoro-phenyl]-7H-pyrrolo[2,3-d]pyrimidin-2-ylamino}-benzonitrile] |

| Compound | IC50 (GST-JAK2(808-1132)) | IC50 [1] |
| --- | --- | --- |
| CCOc1ccc(Nc2ncc3ccn(-c4ccc(CC(=O)N5CCN(CC)CC5)cc4)c3n2)cc1OCC [Example 165, 2-{4-[2-(3,4-Diethoxy-phenylamino)-pyrrolo[2,3-d]pyrimidin-7-yl]-phenyl}-1-(4-ethyl-piperazin-1-yl)-ethanone] | < 3 nM | 125 nM |
| CCOc1ccc(Nc2ncc3cc(C)n(-c4ccc(CC(=O)N5CCN(C)CC5)cc4)c3n2)cc1OCC [Example 167, 2-{4-[2-(3,4-Diethoxy-phenylamino)-6-methyl-pyrrolo[2,3-d]pyrimidin-7-yl]-phenyl}-1-(4-methyl-piperazin-1-yl)-ethanone] | 39 nM | 2070 nM |
| CCN1CCN(C(=O)Cc2cccc(Nc3ncc4ccn(-c5cc(F)c(CN6CCOCC6)c(F)c5)c4n3)c2)CC1 [Example 172, 2-{3-[7-(3,5-Difluoro-4-morpholin-4-ylmethyl-phenyl)-7H-pyrrolo[2,3-d]pyrimidin-2-ylamino]-phenyl}-1-(4-ethyl-piperazin-1-yl)-ethanone] | < 3 nM | 220 nM |
